The test system of one series is RAW264.7. As to the kind of experiment: Anti-inflammatory activity in mouse RAW264.7 cells assessed as inhibition of LPS-stimulated NO production. The format is functional, cell-based.
Series [1] can be described thus: Cytotoxicity against mouse RAW264.7 cells assessed as cell growth inhibition by CCK-8 colorimetric assay. The format is toxicity, cell-based. (Tetrazolium assays rely on reduction of a dye to a coloured formazan, in cell work by metabolically active cells.)
Series [2] deals with T1, Prostaglandin G/H synthase 2 (Homo sapiens, UniProt P35354).
T1 sequence (P35354 whole entry): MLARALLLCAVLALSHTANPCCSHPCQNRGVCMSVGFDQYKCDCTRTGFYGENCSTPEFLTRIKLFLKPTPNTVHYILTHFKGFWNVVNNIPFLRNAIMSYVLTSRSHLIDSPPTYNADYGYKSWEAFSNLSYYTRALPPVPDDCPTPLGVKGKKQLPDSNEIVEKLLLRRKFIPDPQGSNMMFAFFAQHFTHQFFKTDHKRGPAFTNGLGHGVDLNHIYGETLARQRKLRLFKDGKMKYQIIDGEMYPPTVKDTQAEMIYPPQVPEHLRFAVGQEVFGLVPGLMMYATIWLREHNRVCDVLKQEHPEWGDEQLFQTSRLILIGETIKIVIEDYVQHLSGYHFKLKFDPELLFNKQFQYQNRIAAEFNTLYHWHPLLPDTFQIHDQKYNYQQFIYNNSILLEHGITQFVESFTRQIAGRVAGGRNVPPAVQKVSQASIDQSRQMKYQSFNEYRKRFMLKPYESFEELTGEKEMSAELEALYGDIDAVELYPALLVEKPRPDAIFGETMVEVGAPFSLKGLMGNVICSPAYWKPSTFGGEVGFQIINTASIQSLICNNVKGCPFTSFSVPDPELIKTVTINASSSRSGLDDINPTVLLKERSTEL
As to the kind of experiment: Inhibition of COX-2 (unknown origin).

For the next series, the target named is T2, Interleukin-5 (Homo sapiens, UniProt P05113).
T2 sequence (P05113 whole entry): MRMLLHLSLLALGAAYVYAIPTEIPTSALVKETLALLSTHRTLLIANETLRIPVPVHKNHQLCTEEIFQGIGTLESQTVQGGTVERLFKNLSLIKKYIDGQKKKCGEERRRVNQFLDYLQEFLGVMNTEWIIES
As to the kind of experiment: Inhibition of IL-5 (unknown origin).

The term EC50 denotes the concentration giving half of the maximal effect. The term IC50 denotes the concentration that gives 50% inhibition.

A value given as a limit tells only on which side of the number the result lay.

For `COc1ccc(NC(=O)c2cc(=O)c3ccc(Br)cc3o2)cc1`, the EC50 with RAW264.7 was 174 µM. The same measure, in the same setting: in the case of `Cc1ccc(NC(=O)c2cc(=O)c3ccc(Br)cc3o2)cc1C` it was 821 µM; in that of `COc1cccc2oc(C(=O)Nc3ccc(F)c(F)c3)cc(=O)c12`, 208 µM. As to `COc1ccc2c(=O)cc(C(=O)Nc3ccccc3C)oc2c1`, the IC50 in series [1] was found to be 813 µM. Also, the EC50 in the series on RAW264.7 stood at 5.33 µM.

`O=C1Nc2ccccc2/C1=C/c1coc2ccccc2c1=O` returned an IC50 in series [2] of 0.02 µM.

Take `COc1ccc(NC(=O)c2cc(=O)c3c(OC)cc(OC)cc3o2)cc1`: in the series with RAW264.7, the EC50 was 21.3 µM. On the same count and under the same terms, in the case of `Cc1ccc2oc(C(=O)Nc3ccc(C)c(Cl)c3)cc(=O)c2c1` it was 80 µM. In turn, `O=c1c(CCC(O)c2ccc(O)cc2)coc2cccc(OCC3CCCCC3)c12` (stereo unspecified) displayed an IC50 on Interleukin-5 of 4 µM. Consider `COc1cccc2oc(C(=O)Nc3ccc(Cl)c(C(F)(F)F)c3)cc(=O)c12`, for which the concentration for a half-maximal effect (EC50) in the series with RAW264.7 was 448 µM. As for `Cc1ccc2oc(C(=O)Nc3ccc(F)c(F)c3)cc(=O)c2c1`, the EC50 in the series with RAW264.7 stood at 41 µM.

For `O=C(Nc1ccc(F)c(F)c1)c1cc(=O)c2ccc(Br)cc2o1`, the EC50 in the series on RAW264.7 came to 138 µM. Turning to `CC(C)Cc1ccc(C(C)C(=O)O)cc1` (stereo unspecified) [IBUPROFEN], in series [1], the IC50 was more than 1000 µM. The EC50 with RAW264.7 came out at 26.7 µM. `Cc1ccc2oc(C(=O)Nc3ccc(Cl)c(C(F)(F)F)c3)cc(=O)c2c1`: the EC50 in the series with RAW264.7 worked out at 40.7 µM. `COc1cccc2oc(C(=O)Nc3ccc(Cl)c(F)c3)cc(=O)c12`: the EC50 in the series on RAW264.7 came out at 83.7 µM. As for `COc1ccc2c(=O)cc(C(=O)Nc3ccc(Cl)c(C(F)(F)F)c3)oc2c1`, in the series on RAW264.7, the EC50 was found to be 86.5 µM. Same read-out and setting: in the case of `COc1cc(OC)c2c(=O)cc(C(=O)Nc3ccc(C(F)(F)F)cc3)oc2c1` it was 31.7 µM. On the same count and under the same terms, in the case of `CCOc1ccc(NC(=O)c2cc(=O)c3ccccc3o2)cc1` it was more than 1000 µM. For `COc1cccc2oc(C(=O)Nc3cc(Cl)ccc3C)cc(=O)c12`, the IC50 in series [1] stood at 48 µM. As to `O=C(Nc1ccc(Br)cc1)c1cc(=O)c2ccccc2o1`, the IC50 in series [1] is 24.3 µM. Also, the EC50 in the series on RAW264.7 stood at 41 µM. With `COc1ccc2c(=O)cc(C(=O)Nc3ccc(Cl)c(Cl)c3)oc2c1`, the EC50 in the series with RAW264.7 was 82 µM. On the same count and under the same terms, with `Cc1ccc(NC(=O)c2cc(=O)c3ccccc3o2)cc1Cl` the figure was 30.1 µM; with `COc1cc(OC)c2c(=O)cc(C(=O)Nc3cc(Cl)ccc3C)oc2c1`, 18.7 µM. Still for that read-out and setting: with `O=C(Nc1ccc(C(F)(F)F)cc1)c1cc(=O)c2ccccc2o1` the figure was more than 1000 µM; with `Cc1ccc(NC(=O)c2cc(=O)c3ccccc3o2)cc1C`, 31.7 µM. On the same count and under the same terms, in the case of `COc1ccc(NC(=O)c2cc(=O)c3ccccc3o2)cc1` it was 42.1 µM. With `Cc1ccc(Cl)cc1NC(=O)c1cc(=O)c2ccccc2o1`, the EC50 in the series with RAW264.7 stood at 45.3 µM. For the compound `O=C(Nc1ccc(C(F)(F)F)cc1)c1cc(=O)c2ccc(Br)cc2o1`, in series [1], the IC50 stood at 324 µM. Besides, the EC50 with RAW264.7 stood at 167 µM. As to `O=C(Nc1ccc(F)c(F)c1)c1cc(=O)c2ccccc2o1`, in the series with RAW264.7, the EC50 was 91.8 µM. For `COc1ccc2c(=O)cc(C(=O)Nc3ccc(Br)cc3)oc2c1`, in the series on RAW264.7, the EC50 came to 89.5 µM. On the same count and under the same terms, with `COc1cccc2oc(C(=O)Nc3ccc(Br)cc3)cc(=O)c12` the figure was 378 µM; with `Cc1ccc2oc(C(=O)Nc3ccc(Cl)c(Cl)c3)cc(=O)c2c1`, 40.3 µM; with `O=C(Nc1ccc(Br)cc1)c1cc(=O)c2ccc(Br)cc2o1`, 50 µM.

With `COc1cc(OC)c2c(=O)cc(C(=O)Nc3ccc(C)c(Cl)c3)oc2c1`, in series [1], the half-inhibitory concentration (IC50) is 48 µM. Moreover, the EC50 with RAW264.7 was 115 µM. Consider `COc1ccc2c(=O)cc(C(=O)Nc3ccc(C)c(Cl)c3)oc2c1`, for which the EC50 with RAW264.7 turned out to be 45.2 µM. As to `COc1cc(OC)c2c(=O)cc(C(=O)Nc3ccc(Cl)c(Cl)c3)oc2c1`, the EC50 in the series on RAW264.7 is 32.3 µM. Turning to `Cc1ccc(NC(=O)c2cc(=O)c3ccc(Br)cc3o2)cc1Cl`, the EC50 in the series on RAW264.7 amounted to 37.9 µM. Still for that read-out and setting: with `COc1ccc2c(=O)cc(C(=O)Nc3ccc(Cl)c(F)c3)oc2c1` the figure was 11.1 µM; with `COc1cccc2oc(C(=O)Nc3ccc(C(F)(F)F)cc3)cc(=O)c12`, 175 µM; with `COc1ccc(NC(=O)c2cc(=O)c3c(OC)cccc3o2)cc1`, 191 µM.

Regarding `Cc1ccc2oc(C(=O)Nc3cc(Cl)ccc3C)cc(=O)c2c1`, the IC50 in series [1] was 38.4 µM. Besides, the EC50 in the series on RAW264.7 came to 40.5 µM.

The values above are taken from ChEMBL document CHEMBL5390269, “Synthesis, anti-inflammatory activity, and conformational relationship studies of chromone derivatives incorporating amide groups” (Bioorg Med Chem Lett, 2023).
